Assay results from patent US10047083B2, “Dihydropyrimidinoisoquinolinones and pharmaceutical compositions thereof for the treatment of inflammatory disorders” (GALAPAGOS NV, priority 2011, dated 2018).

Molecular target: T1, GPR84 (Homo sapiens, UniProt Q9NQS5)
T1 construct: expressed in transfected cells; membranes used
Assay: GTPγS binding assay (GPR84)
Type: biochemical
Conditions: membranes from stable cell line over expressing GPR84; 3,3′ di indolylmethane at EC80
Method: 1.1. Cell Based Assay: GTp-γS Binding Assay.
The following assay can be used for determination of GPR84 activation.
The assay is performed in a 96 well plate where the following reagents are added. […] In a last step, 30 μL of a mixture consisting of membranes-GTPγS-SpA beads is added [mixture consists of 20 μg/well membranes derived from stable cell line over expressing GPR84 (membranes are pre-incubated with 0.1 μM GDP for 15 min at 4° C.), 0.1 nM [^35S]GTPγS (Perkin Elmer, NEG030) and 0.5 mg/well PVT-WGA SpA beads (Perkin Elmer, RPNQ0001)]. All components are diluted in assay buffer containing 20 mM HEPES pH 7.4; 5 mM MgCl2; 250 mM NaCl; 0.05% BSA; 75 ug/mL saponin. Reactions are incubated for 90 min at room temperature followed by centrifugation at 2000 rpm during 15 min. Plates are read on a Topcount reader (Perkin Elmer) immediately after centrifugation (readout time, 1 min/well).

T1 sequence (Q9NQS5 whole entry): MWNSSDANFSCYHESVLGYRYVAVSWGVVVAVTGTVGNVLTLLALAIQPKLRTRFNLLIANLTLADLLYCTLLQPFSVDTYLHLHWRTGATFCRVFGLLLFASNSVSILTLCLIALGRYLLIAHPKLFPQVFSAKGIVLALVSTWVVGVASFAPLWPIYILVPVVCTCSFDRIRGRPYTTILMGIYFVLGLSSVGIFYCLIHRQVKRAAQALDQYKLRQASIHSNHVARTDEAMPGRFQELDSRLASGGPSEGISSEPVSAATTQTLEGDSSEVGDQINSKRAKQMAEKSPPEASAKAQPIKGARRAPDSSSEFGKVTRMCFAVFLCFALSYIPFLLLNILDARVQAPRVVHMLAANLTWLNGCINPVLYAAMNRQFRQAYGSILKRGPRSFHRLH

| IC50 [nM] | SMILES |
| --- | --- |
| 101 to 500 | C=CCOc1ccc2c(c1)CCn1c-2cc(OCC2COCCO2)nc1=O (stereo not drawn) [Compound 1, 9-allyloxy-2-(-1-[1,4]dioxan-2-ylmethoxy)-6,7-dihydro-pyrimido[6,1-a]isoquinolin-4-one] |
| 501 to 1000 | O=c1nc(OCC2COCCO2)cc2n1CCc1cc(-c3ccncc3)ccc1-2 (stereo not drawn) [Compound 3, 2-([1,4]dioxan-2-ylmethoxy)-9-pyridin-4-yl-6,7-dihydro-pyrimido[6,1-a]isoquinolin-4-one] |
| 501 to 1000 | N#Cc1cccc(-c2ccc3c(c2)CCn2c-3cc(OCC3COCCO3)nc2=O)c1 (stereo not drawn) [Compound 5, 3-[2-([1,4]dioxan-2-ylmethoxy)-4-oxo-6,7-dihydro-4H-pyrimido[6,1-a]isoquinolin-9-yl]-benzonitrile] |
| 101 to 500 | N#Cc1ccc(-c2ccc3c(c2)CCn2c-3cc(OCC3COCCO3)nc2=O)cc1 (stereo not drawn) [Compound 6, 4-[2-([1,4]dioxan-2-ylmethoxy)-4-oxo-6,7-dihydro-4H-pyrimido[6,1-a]isoquinolin-9-yl]-benzonitrile] |
| 501 to 1000 | NC(=O)c1cc(-c2ccc3c(c2)CCn2c-3cc(OCC3COCCO3)nc2=O)ccc1F (stereo not drawn) [Compound 28, 5-[2-([1,4]dioxan-2-ylmethoxy)-4-oxo-6,7-dihydro-4H-pyrimido[6,1-a]isoquinolin-9-yl]-2-fluoro-benzamide] |
| 101 to 500 | COc1cccc(-c2ccc3c(c2)CCn2c-3cc(OCC3COCCO3)nc2=O)c1 (stereo not drawn) [Compound 43, 2-([1,4]dioxan-2-ylmethoxy)-9-(3-methoxy-phenyl)-6,7-dihydro-pyrimido[6,1-a]isoquinolin-4-one] |
| 501 to 1000 | O=c1nc(OCC2COCCO2)cc2n1CCc1cc(C#CCCO)ccc1-2 (stereo not drawn) [Compound 45, 2-([1,4]dioxan-2-ylmethoxy)-9-(4-hydroxy-but-1-ynyl)-6,7-dihydro-pyrimido[6,1-a]isoquinolin-4-one] |
| 101 to 500 | NC(=O)c1ccc(F)c(-c2ccc3c(c2)CCn2c-3cc(OCC3COCCO3)nc2=O)c1 (stereo not drawn) [Compound 50, 3-[2-([1,4]dioxan-2-ylmethoxy)-4-oxo-6,7-dihydro-4H-pyrimido[6,1-a]isoquinolin-9-yl]-4-fluoro-benzamide] |
| 101 to 500 | NC(=O)c1cc(F)cc(-c2ccc3c(c2)CCn2c-3cc(OCC3COCCO3)nc2=O)c1 (stereo not drawn) [Compound 51, 3-[2-([1,4]dioxan-2-ylmethoxy)-4-oxo-6,7-dihydro-4H-pyrimido[6,1-a]isoquinolin-9-yl]-5-fluoro-benzamide] |
| 101 to 500 | O=c1nc(OCC2COCCO2)cc2n1CCc1cc(C#Cc3ccncc3)ccc1-2 (stereo not drawn) [Compound 53, 2-([1,4]dioxan-2-ylmethoxy)-9-pyridin-4-ylethynyl-6,7-dihydro-pyrimido[6,1-a]isoquinolin-4-one] |
| 101 to 500 | Cc1cc(COc2ccc3c(c2)CCn2c-3cc(OCC3COCCO3)nc2=O)on1 (stereo not drawn) [Compound 54, 2-([1,4]dioxan-2-ylmethoxy)-9-(3-methyl-isoxazol-5-ylmethoxy)-6,7-dihydro-pyrimido[6,1-a]isoquinolin-4-one] |
| > 1000 | CC(C)(O)C#Cc1ccc2c(c1)CCn1c-2cc(OCC2COCCO2)nc1=O (stereo not drawn) [Compound 55, 2-([1,4]dioxan-2-ylmethoxy)-9-(3-hydroxy-3-methyl-but-1-ynyl)-6,7-dihydro-pyrimido[6,6,1-a]isoquinolin-4-one] |
| 101 to 500 | O=c1nc(OCC2COCCO2)cc2n1CCc1cc(C3=CCOCC3)ccc1-2 (stereo not drawn) [Compound 58, 9-(3,6-dihydro-2H-pyran-4-yl)-2-([1,4]dioxan-2-ylmethoxy)-6,7-dihydro-pyrimido[6,1-a]isoquinolin-4-one] |
| 501 to 1000 | N#Cc1ccc(-c2ccc3c(c2)CCn2c-3cc(OCC3COCCO3)nc2=O)cn1 (stereo not drawn) [Compound 59, 5-[2-([1,4]dioxan-2-ylmethoxy)-4-oxo-6,7-dihydro-4H-pyrimido[6,1-a]isoquinolin-9-yl]-pyridine-2-carbonitrile] |
| 0.01 to 100 | CCOc1ccc(-c2ccc3c(c2)CCn2c-3cc(OCC3COCCO3)nc2=O)cn1 (stereo not drawn) [Compound 61, 2-([1,4]dioxan-2-ylmethoxy)-9-(6-ethoxy-pyridin-3-yl)-6,7-dihydro-pyrimido[6,1-a]isoquinolin-4-one] |
